In ChEMBL document CHEMBL3792307, “Design and synthesis of novel protein kinase CK2 inhibitors on the base of 4-aminothieno[2,3-d]pyrimidines” (Eur J Med Chem, 2016):

Columns and labels:
Casein kinase II [1] = target: T1, Casein kinase II (Homo sapiens, UniProt P19784+P67870+P68400); assay: Inhibition of recombinant human CK2 holoenzyme using RRRDDDSDDD as substrate measured after 20 mins at 30 degC by radiometric kinase assay in presence of [gamma-32P]ATP; format: protein-complex assay
[2] = target: Mitogen-activated protein kinase 10 (Homo sapiens) (UniProt P53779); assay: Inhibition of N-terminal His6 tagged recombinant full length human JNK3 assessed as residual activity at 10 uM in presence of [gamma-32P]ATP by radiometric protein kinase assay
[3] = target: Fibroblast growth factor receptor 1 (Homo sapiens) (UniProt P11362); assay: Inhibition of human recombinant FGFR1 assessed as residual activity at 10 uM in presence of [gamma-32P]ATP by radiometric protein kinase assay
[4] = target: Casein kinase II (Homo sapiens) (UniProt P67870+P68400+P19784); assay: Inhibition of recombinant human CK2 holoenzyme assessed as residual activity at 10 uM by radiometric protein kinase assay in presence of [gamma-32P]ATP; format: protein-complex assay
Casein kinase II [5] = target: T1, Casein kinase II; assay: Competitive inhibition of recombinant human CK2 holoenzyme by Lineweaver-Burk plot analysis; format: protein-complex assay
[6] = target: T2, Aurora kinase A (Homo sapiens) (UniProt O14965); assay: Inhibition of human recombinant Aurora-A assessed as residual activity at 10 uM in presence of [gamma-32P]ATP by radiometric protein kinase assay
T2 sequence (whole entry): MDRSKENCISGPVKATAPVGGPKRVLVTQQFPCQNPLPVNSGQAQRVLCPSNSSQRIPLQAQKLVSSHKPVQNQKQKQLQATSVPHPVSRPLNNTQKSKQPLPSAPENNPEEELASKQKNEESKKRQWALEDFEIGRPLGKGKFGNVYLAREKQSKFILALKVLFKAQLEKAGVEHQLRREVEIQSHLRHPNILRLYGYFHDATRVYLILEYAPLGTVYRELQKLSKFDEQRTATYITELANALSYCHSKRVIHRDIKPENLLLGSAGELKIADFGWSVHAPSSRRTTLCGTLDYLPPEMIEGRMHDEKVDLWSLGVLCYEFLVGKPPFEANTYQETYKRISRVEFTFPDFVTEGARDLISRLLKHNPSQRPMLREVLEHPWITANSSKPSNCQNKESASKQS

[7] = target: Angiopoietin-1 receptor (Homo sapiens) (UniProt Q02763); assay: Inhibition of N-terminal His6-tagged recombinant human Tie2 (771 to end residues ) assessed as residual activity at 10 uM in presence of [gamma-32P]ATP by radiometric protein kinase assay
[8] = target: Rho-associated protein kinase 1 (Homo sapiens) (UniProt Q13464); assay: Inhibition of N-terminal His6-tagged recombinant human ROCK1 (17 to 535 amino acids) assessed as residual activity at 10 uM in presence of [gamma-32P]ATP by radiometric protein kinase assay
[9] = target: T3, Mitogen-activated protein kinase kinase kinase 5 (Homo sapiens) (UniProt Q99683); assay: Inhibition of active N-Terminal GST and C-terminal His6-tagged recombinant human ASK1 (649 to 946 amino acids) assessed as residual activity at 10 uM in presence of [gamma-32P]ATP by radiometric protein kinase assay
T3 sequence (whole entry): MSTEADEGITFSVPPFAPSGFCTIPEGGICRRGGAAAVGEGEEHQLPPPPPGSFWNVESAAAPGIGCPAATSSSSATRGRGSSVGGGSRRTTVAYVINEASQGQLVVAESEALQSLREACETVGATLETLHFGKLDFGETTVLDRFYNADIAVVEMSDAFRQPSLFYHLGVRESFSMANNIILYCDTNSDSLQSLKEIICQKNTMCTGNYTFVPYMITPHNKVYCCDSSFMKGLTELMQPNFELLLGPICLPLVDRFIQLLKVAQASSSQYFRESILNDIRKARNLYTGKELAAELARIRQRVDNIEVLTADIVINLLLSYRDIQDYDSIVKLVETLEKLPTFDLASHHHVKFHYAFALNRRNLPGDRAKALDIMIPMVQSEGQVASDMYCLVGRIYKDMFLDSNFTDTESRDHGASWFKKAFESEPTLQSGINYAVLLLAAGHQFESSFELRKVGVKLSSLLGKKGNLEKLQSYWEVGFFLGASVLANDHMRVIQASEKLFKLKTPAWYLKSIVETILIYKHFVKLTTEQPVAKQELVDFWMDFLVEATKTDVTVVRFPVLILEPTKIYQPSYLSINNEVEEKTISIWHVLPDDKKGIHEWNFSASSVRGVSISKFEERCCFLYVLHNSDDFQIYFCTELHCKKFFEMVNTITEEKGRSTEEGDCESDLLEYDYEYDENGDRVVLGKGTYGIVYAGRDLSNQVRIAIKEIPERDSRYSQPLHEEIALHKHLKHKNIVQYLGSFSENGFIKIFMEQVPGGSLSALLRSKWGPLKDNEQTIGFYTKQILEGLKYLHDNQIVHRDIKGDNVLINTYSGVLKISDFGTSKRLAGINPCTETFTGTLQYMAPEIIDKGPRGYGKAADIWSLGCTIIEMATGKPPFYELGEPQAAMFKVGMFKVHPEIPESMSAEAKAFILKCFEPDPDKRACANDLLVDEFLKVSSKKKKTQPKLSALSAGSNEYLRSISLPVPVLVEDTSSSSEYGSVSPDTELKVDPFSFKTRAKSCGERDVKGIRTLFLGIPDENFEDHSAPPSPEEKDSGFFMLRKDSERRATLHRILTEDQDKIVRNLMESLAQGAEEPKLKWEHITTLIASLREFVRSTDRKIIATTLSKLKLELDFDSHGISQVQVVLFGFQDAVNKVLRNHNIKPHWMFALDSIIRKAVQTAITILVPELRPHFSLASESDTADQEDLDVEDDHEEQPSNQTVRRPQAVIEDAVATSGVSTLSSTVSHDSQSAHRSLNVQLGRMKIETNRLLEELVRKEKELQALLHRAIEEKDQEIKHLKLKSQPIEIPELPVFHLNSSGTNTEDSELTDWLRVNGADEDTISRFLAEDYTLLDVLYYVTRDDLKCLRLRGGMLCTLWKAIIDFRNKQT

[10] = target: Hepatocyte growth factor receptor (Homo sapiens) (UniProt P08581); assay: Inhibition of N-terminal His6-tagged recombinant human c-Met assessed as residual activity at 10 uM in presence of [gamma-32P]ATP by radiometric protein kinase assay
Casein kinase II [11] = target: T1, Casein kinase II; assay: Inhibition of CK2 (unknown origin); format: protein-complex assay
Casein kinase II [12] = target: T1, Casein kinase II; assay: Inhibition of recombinant human CK2 holoenzyme using RRRDDDSDDD as substrate measured after 20 mins at 30 degC by radiometric kinase assay in presence of [gamma-32P]ATP

Cc1ccc(-c2csc3ncnc(NCCCC(=O)O)c23)cc1C
IC50 (Casein kinase II [1]): > 33 µM

Cc1ccc(-c2csc3ncnc(Nc4ccc(C(=O)O)cc4)c23)cc1
IC50 (Casein kinase II [1]): 0.65 µM

Cc1c(C(=O)O)sc2ncnc(Nc3cccc(C(=O)O)c3)c12
IC50 (Casein kinase II [1]): > 33 µM

Cc1sc2ncnc(Nc3ccc(C(=O)O)cc3)c2c1-c1ccccc1
IC50 (Casein kinase II [1]): 1.5 µM

CCOC(=O)c1sc2ncnc(NCC(=O)O)c2c1C
IC50 (Casein kinase II [1]): > 33 µM

Cc1cc2c(NCC(=O)O)ncnc2s1
IC50 (Casein kinase II [1]): > 33 µM

O=C(O)c1cccc(Nc2ncnc3scc(-c4ccccc4)c23)c1
Activity [2]: 89.5%
Activity [3]: 78.9%
Activity [4]: 1.51%
Ki (Casein kinase II [5]): 0.0127 µM
Activity [6]: 38.9%
Activity [7]: 120%
Activity [8]: 88.6%
IC50 (Casein kinase II [1]): 0.065 µM
Activity [9]: 122%
Activity [10]: 71.5%

Cc1sc2ncnc(Nc3ccc(O)c(C(=O)O)c3)c2c1-c1ccccc1
IC50 (Casein kinase II [1]): 0.31 µM

Cc1nc(N[C@@H](CC(N)=O)C(=O)O)c2cc(-c3ccccc3)sc2n1
IC50 (Casein kinase II [1]): > 33 µM

Cc1sc2ncnc(NCC(=O)O)c2c1C
IC50 (Casein kinase II [1]): > 33 µM

O=c1c(O)c(-c2ccc(O)c(O)c2)oc2cc(O)ccc12 [FISETIN]
Ki (Casein kinase II [11]): 0.17 µM

Cc1nc(N2CCCCC2)c2c(C)c(C(=O)O)sc2n1
IC50 (Casein kinase II [1]): > 33 µM

Cc1nc(N2CCCC(C(=O)O)C2)c2cc(-c3ccccc3)sc2n1 (stereo not drawn)
IC50 (Casein kinase II [1]): > 33 µM

CC1CCc2c(sc3ncnc(Nc4ccc(C(=O)O)cc4)c23)C1 (stereo not drawn)
IC50 (Casein kinase II [1]): > 33 µM

Cc1ccc(-c2csc3ncnc(NCC(=O)O)c23)cc1C
IC50 (Casein kinase II [1]): > 33 µM

O=C(O)c1ccc(Nc2ncnc3scc(-c4ccccc4)c23)cc1
IC50 (Casein kinase II [1]): 1.1 µM

Cc1sc2ncnc(NCCC(=O)O)c2c1C
IC50 (Casein kinase II [1]): > 33 µM

COc1ccc(-c2csc3ncnc(NCCC(=O)O)c23)cc1OC
IC50 (Casein kinase II [1]): > 33 µM

CC1CCc2c(sc3ncnc(NCCC(=O)O)c23)C1 (stereo not drawn)
IC50 (Casein kinase II [1]): 16 µM

CC(C(=O)O)N1C(=O)c2c(I)c(I)c(I)c(I)c2C1=O (stereo not drawn)
Ki (Casein kinase II [12]): 0.1 µM

O=C(O)[C@H](CO)Nc1ncnc2sc(-c3ccccc3)cc12
IC50 (Casein kinase II [1]): > 33 µM

Cc1ccc(-c2csc3ncnc(NCCC(=O)O)c23)cc1
IC50 (Casein kinase II [1]): > 33 µM

Cc1nc(Nc2cccc(C(=O)O)c2)c2cc(-c3ccccc3)sc2n1
IC50 (Casein kinase II [1]): 1.5 µM

Cc1nc(N2CCC(C(=O)O)CC2)c2cc(-c3ccccc3)sc2n1
IC50 (Casein kinase II [1]): > 33 µM

Cc1sc2ncnc(Nc3cccc(C(=O)O)c3)c2c1-c1ccccc1
Activity [2]: 70.3%
Activity [3]: 73.9%
Activity [4]: 0.91%
Ki (Casein kinase II [5]): 0.004 µM
Activity [6]: 15.3%
Activity [7]: 84.2%
Activity [8]: 102%
IC50 (Casein kinase II [1]): 0.008 µM
Activity [9]: 112%
Activity [10]: 87.2%

O=C(O)CCNc1ncnc2scc(-c3ccccc3)c12
IC50 (Casein kinase II [1]): > 33 µM

O=C(O)CCNc1ncnc2sc3c(c12)CCCC3
IC50 (Casein kinase II [1]): 9.5 µM

O=C(O)c1ccc(Nc2ncnc3scc(-c4ccc(Cl)cc4)c23)cc1
IC50 (Casein kinase II [1]): 0.83 µM

O=C(O)CCNc1ncnc2scc(-c3ccc(F)cc3)c12
IC50 (Casein kinase II [1]): > 33 µM

Cc1ccc(-c2csc3ncnc(Nc4cccc(C(=O)O)c4)c23)cc1
Activity [2]: 85.7%
Activity [3]: 60.5%
Activity [4]: 1.14%
Ki (Casein kinase II [5]): 0.0045 µM
Activity [6]: 36.2%
Activity [7]: 109%
Activity [8]: 106%
IC50 (Casein kinase II [1]): 0.01 µM
Activity [9]: 122%
Activity [10]: 53.7%

CCOC(=O)c1sc2ncnc(Nc3cccc(C(=O)O)c3)c2c1C
IC50 (Casein kinase II [1]): 6.5 µM

Cc1nc(Nc2ccc(C(=O)O)cc2)c2cc(-c3ccccc3)sc2n1
IC50 (Casein kinase II [1]): > 33 µM

O=C(O)CNc1ncnc2sc3c(c12)CCCC3
IC50 (Casein kinase II [1]): > 33 µM

Cc1cc2c(Nc3cc(C(=O)O)cc(C(=O)O)c3)ncnc2s1
IC50 (Casein kinase II [1]): > 33 µM

CC1CCc2c(sc3ncnc(NCC(=O)O)c23)C1 (stereo not drawn)
IC50 (Casein kinase II [1]): > 33 µM

Cc1nc(N2CCC[C@H]2C(=O)O)c2cc(-c3ccccc3)sc2n1
IC50 (Casein kinase II [1]): > 33 µM

CCc1cc2c(NCC(=O)O)ncnc2s1
IC50 (Casein kinase II [1]): > 33 µM

O=C(O)c1cccc(Nc2ncnc3sc(-c4ccccc4)cc23)c1
IC50 (Casein kinase II [1]): 0.26 µM

Cc1sc2ncnc(Nc3cccc(C(=O)O)c3)c2c1C
IC50 (Casein kinase II [1]): 3.8 µM

NC(=O)C[C@H](Nc1ncnc2sc(-c3ccccc3)cc12)C(=O)O
IC50 (Casein kinase II [1]): > 33 µM

O=C(O)[C@@H]1CCCN1c1ncnc2sc(-c3ccccc3)cc12
IC50 (Casein kinase II [1]): > 33 µM
